Assay results taken from ChEMBL document CHEMBL4190383, “Hit discovery of Mycobacterium tuberculosis inosine 5'-monophosphate dehydrogenase, GuaB2, inhibitors” (Bioorg Med Chem Lett, 2018).
Values after ≈ are worked out from the molar mass of the structure shown. Active and inactive are the calls of the source. The calls are words filed in the database; no cut-off is given here.

Experiments:
[1] = Octanol/water partition coefficient , logP of the compound; format: physicochemical
[2] = tested on: Mycobacterium tuberculosis; assay: Antimicrobial activity against Mycobacterium tuberculosis H37Rv by alamar blue assay; format: functional
[3] = tested on: Mycobacterium tuberculosis; assay: Antimicrobial activity against Mycobacterium tuberculosis H37Rv in presence of 0.31 ng/ml anhydrotetracycline-induced guaB2 gene silencing by alamar blue assay; format: functional
Candida albicans = assay: Growth inhibition of Candida albicans at 32 ug/ml; format: functional; conditions: read-out: GI
Escherichia coli = assay: Growth inhibition of Escherichia coli at 32 ug/ml; format: functional; conditions: read-out: GI
Klebsiella pneumoniae = assay: Growth inhibition of Klebsiella pneumoniae at 32 ug/ml; format: functional; conditions: read-out: GI
Pseudomonas aeruginosa = assay: Growth inhibition of Pseudomonas aeruginosa at 32 ug/ml; format: functional; conditions: read-out: GI
Cryptococcus neoformans = assay: Growth inhibition of Cryptococcus neoformans var. grubii at 32 ug/ml; format: functional; conditions: read-out: GI
Acinetobacter baumannii = assay: Growth inhibition of Acinetobacter baumannii at 32 ug/ml; format: functional; conditions: read-out: GI
[4] = tested on: Mycobacterium tuberculosis; assay: Inhibition of Mycobacterium tuberculosis GuaB2 at 50 uM
[5] = tested on: Mycobacterium tuberculosis; assay: Antimicrobial activity against Mycobacterium tuberculosis H37Rv in presence of 0.15 ng/ml anhydrotetracycline-induced guaB2 gene silencing by alamar blue assay; format: functional
[6] = tested on: Mycobacterium tuberculosis; assay: Antimicrobial activity against Mycobacterium tuberculosis H37Rv in presence of 0.08 to 5 ng/ml anhydrotetracycline-induced guaB2 gene silencing by alamar blue assay; format: functional, organism-based
[7] = tested on: Mycobacterium tuberculosis; assay: Antimicrobial activity against Mycobacterium tuberculosis SRMV2.6 H37Rv by alamar blue assay; format: functional
Staphylococcus aureus = assay: Growth inhibition of methicillin-resistant Staphylococcus aureus at 32 ug/ml; format: functional; conditions: read-out: GI
[8] = Inhibition of Mycobacterium tuberculosis GuaB2
[9] = target: Inosine-5'-monophosphate dehydrogenase 2 (Homo sapiens) (UniProt P12268); assay: Inhibition of human IMPDH2 at 10 uM
Chain of Inosine-5'-monophosphate dehydrogenase 2 (Homo sapiens) (P12268 2-514 limits assumed): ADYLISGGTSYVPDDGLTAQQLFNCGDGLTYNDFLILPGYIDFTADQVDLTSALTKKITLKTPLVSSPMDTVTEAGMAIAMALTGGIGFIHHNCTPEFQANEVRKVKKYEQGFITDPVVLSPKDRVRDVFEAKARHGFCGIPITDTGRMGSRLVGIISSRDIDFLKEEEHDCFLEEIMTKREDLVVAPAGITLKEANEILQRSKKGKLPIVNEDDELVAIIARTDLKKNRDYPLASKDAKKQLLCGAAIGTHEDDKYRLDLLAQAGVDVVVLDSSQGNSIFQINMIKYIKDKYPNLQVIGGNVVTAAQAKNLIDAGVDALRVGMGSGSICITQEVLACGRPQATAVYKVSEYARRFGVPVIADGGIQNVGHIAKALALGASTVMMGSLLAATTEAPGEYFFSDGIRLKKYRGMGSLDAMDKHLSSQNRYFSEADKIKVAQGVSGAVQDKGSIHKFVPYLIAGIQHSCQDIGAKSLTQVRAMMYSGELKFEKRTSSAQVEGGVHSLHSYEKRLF

Compound: O=C(Cc1ccc(F)c2ccccc12)Nc1ccc2c(c1)COC2=O
- logP [1]: 2.5 to 3.5
- MIC90 [2]: 100 µM (≈ 33.5 µg/mL)
- MIC [3]: 12.5 µM
- inhibition of growth at 32 µg/mL (Candida albicans): 5.47%
- inhibition of growth at 32 µg/mL (Escherichia coli): -4.49%
- inhibition of growth at 32 µg/mL (Klebsiella pneumoniae): 13.4%
- inhibition of growth at 32 µg/mL (Pseudomonas aeruginosa): -3.45%
- inhibition of growth at 32 µg/mL (Cryptococcus neoformans): -49.8%
- inhibition of growth at 32 µg/mL (Acinetobacter baumannii): -2.02%
- inhibition [4]: 99.9%
- MIC [5]: 12.5 µM
- Activity [6]: Active
- MIC90 [7]: 100 µM (≈ 33.5 µg/mL)
- inhibition of growth at 32 µg/mL (Staphylococcus aureus): 2.37%
- IC50 [8]: 3.04 µM
- inhibition [9]: 0.1%
